Measurements reported in patent publication US7425563B2, “4-(Substituted aryl)-5-hydroxyisoquinolinone derivative” (Kyorin Pharmaceutical Co., Ltd., priority 2002, dated 2008).

Each compound was assayed against T1, PARP (Homo sapiens, UniProt P09874) (assay: Inhibitory experiment against PARP activity). Conditions: PARP (Trevigen), [14C]NAD, activated DNA, 25° C., 10 minutes; concentration decreasing enzyme activity to 50%.
T1 construct: purchased Trevigen 4667-050-01
Assay type: biochemical
Procedure: After mixing well, the contents were warmed to 25° C. in a water bath. After 10 minutes, the reaction was stopped by adding 1 mL of ice-cold 20% trichloroacetic acid and the test tube was left on ice. The precipitates were collected on a glass fiber filter by suction filtration and washed 5 times with 5% trichloroacetic acid. The radioactivity on the filter was measured with liquid scintillation counter.

T1 sequence (P09874 whole entry): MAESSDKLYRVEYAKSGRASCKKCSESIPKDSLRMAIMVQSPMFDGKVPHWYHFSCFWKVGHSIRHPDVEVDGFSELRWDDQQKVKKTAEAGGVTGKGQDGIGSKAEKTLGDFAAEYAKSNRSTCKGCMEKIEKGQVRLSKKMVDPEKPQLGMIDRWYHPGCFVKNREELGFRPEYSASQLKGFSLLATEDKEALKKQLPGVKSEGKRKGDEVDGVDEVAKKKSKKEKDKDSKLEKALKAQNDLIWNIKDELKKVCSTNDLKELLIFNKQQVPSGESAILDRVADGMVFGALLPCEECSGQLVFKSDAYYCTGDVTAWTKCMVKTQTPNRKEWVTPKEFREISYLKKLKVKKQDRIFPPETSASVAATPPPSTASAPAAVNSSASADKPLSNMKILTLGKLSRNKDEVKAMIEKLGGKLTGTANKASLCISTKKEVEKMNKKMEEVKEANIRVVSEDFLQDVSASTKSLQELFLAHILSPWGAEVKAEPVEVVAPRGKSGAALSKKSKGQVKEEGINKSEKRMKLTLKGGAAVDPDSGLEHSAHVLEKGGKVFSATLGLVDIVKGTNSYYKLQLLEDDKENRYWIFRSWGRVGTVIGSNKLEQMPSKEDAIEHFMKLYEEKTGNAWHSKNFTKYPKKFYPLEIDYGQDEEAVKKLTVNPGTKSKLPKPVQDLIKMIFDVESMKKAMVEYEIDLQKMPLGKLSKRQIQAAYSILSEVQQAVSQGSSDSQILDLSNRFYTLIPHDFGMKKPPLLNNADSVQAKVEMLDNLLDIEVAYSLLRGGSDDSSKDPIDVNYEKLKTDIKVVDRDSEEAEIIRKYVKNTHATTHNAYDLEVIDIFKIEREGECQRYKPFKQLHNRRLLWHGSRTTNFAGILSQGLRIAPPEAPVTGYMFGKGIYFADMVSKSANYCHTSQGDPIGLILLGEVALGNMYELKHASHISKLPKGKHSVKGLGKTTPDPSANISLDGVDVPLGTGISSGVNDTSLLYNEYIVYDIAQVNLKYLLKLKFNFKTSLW

IC50 | SMILES
47 nM | CN(CCCc1ccccc1)Cc1ccc(-c2c[nH]c(=O)c3cccc(O)c23)cc1 [Example 21]
54 nM | CN(Cc1ccccc1)Cc1ccc(-c2c[nH]c(=O)c3cccc(O)c23)cc1 [Example 12]
33 nM | O=c1[nH]cc(-c2ccc(CN3CCCC3)cc2)c2c(O)cccc12 [Example 32]
20 nM | O=c1[nH]cc(-c2ccc(CN3CC=C(c4ccccc4)CC3)cc2)c2c(O)cccc12 [Example 61, 1,2-Dihydro-5-hydroxy-1-oxo-4-[4-[(4-phenyl-1,2,3,6-tetrahydropyridine-1-yl)methyl]phenyl]isoquinoline]
126 nM | CN(Cc1ccc(-c2c[nH]c(=O)c3cccc(O)c23)cc1)CC1CCCCC1 [Example 23]
41 nM | CN(CCc1ccccc1)Cc1ccc(-c2c[nH]c(=O)c3cccc(O)c23)cc1 [Example 19]
